For orientation: Ki means the equilibrium dissociation constant of an inhibitor or competing ligand from its target.

Results on four compounds are retold here after paper PMC2605960 (Biochemical Journal, 2008).

The target in assay [1] is T1, FLAG-α1b-adrenoceptor-eYFP (Mesocricetus auratus, UniProt P18841).
T1 sequence (P18841 1-515): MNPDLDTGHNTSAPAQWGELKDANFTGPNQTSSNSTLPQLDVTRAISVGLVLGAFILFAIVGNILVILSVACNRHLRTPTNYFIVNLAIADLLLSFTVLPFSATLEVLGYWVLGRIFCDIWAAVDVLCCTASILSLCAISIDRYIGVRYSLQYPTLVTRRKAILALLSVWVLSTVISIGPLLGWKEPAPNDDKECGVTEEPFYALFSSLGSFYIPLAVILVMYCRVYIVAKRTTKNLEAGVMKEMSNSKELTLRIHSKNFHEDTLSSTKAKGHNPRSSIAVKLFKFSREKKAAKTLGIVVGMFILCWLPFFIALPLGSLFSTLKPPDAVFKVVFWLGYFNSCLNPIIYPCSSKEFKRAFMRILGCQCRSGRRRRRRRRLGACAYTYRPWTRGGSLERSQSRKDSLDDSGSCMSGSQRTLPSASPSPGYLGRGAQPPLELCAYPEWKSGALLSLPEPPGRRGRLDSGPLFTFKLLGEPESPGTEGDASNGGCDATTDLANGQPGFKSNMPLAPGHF
Format: binding.

Assay [2] deals with T2, FLAG-α1b-adrenoceptor TMI-TMIV-eYFP (Mesocricetus auratus, UniProt P18841, L166A/L167A/L65A/V66A).
T2 sequence (P18841 1-515 L65A/V66A/L166A/L167A): T1 sequence (P18841 1-515) with L65A, V66A, L166A, L167A
The conditions noted are these: pKi, [3H]prazosin competition binding.

Assay [3] deals with T2, FLAG-α1b-adrenoceptor TMI-TMIV-eYFP. As to the kind of experiment: Intact cell anti-FLAG ELISA of cell surface receptor. It counts as cell-based. The conditions noted are these: for cell surface delivery of mutant receptor (anti-FLAG ELISA): 10^−5 M of each drug.
Assay [4] has the same target. Format: cell-based. The conditions noted are these: pre-treated with 10^−7 M overnight, then extensively washed; 0.4 nM [3H]prazosin.
For assay [5], the target named is T3, FLAG-α1b-adrenoceptor TMI-TMIV (Mesocricetus auratus, UniProt P18841, L166A/L167A/L65A/V66A).
T3 sequence (P18841 1-515 L65A/V66A/L166A/L167A) 1: T1 sequence (P18841 1-515) with L65A, V66A, L166A, L167A
T3 sequence (P18841 1-515 L65A/V66A/L166A/L167A) 2: T1 sequence (P18841 1-515) with L65A, V66A, L166A, L167A
T3 sequence (P18841 1-515 L65A/V66A/L166A/L167A) 3: T1 sequence (P18841 1-515) with L65A, V66A, L166A, L167A
In words: Sequential 3-colour FRET imaging. Format: cell-based. The settings on record: 10^−7 M, 12 h; transiently transfected HEK-293 cells.

Numbering of substitutions follows the chain as printed.

Take `CNC[C@H](O)c1ccc(O)c(O)c1` [adrenaline]: the inhibitory constant (Ki) is 501 nM in assay [1] and 63.1 nM in assay [2].
Regarding `O=C(c1ccc(F)cc1)C1CCN(CCn2c(=O)[nH]c3ccccc3c2=O)CC1` [ketanserin], in assay [3] (overnight treatment), the “cell surface delivery of mutant receptor (anti-FLAG ELISA)” value (“cell surface delivery of mutant receptor” for short) is on record as “significant cell surface delivery”.
Consider `COc1cc2nc(N3CCN(C(=O)c4ccco4)CC3)nc(N)c2cc1OC` [prazosin], for which, in assay [3] (overnight treatment), the “cell surface delivery of mutant receptor” value is recorded as “most effective ligand tested” and the “concentration of maximum effect on cell surface mutant receptor” value was 10^−7 M. In addition, the “incubation time for maximum effect on cell surface mutant receptor” value in assay [3] (results not shown) lay in the range of 14 to 16 h. The “cell surface mutant receptor by intact cell [3H]prazosin binding” value in assay [4] is “marked increases of cell surface FLAG-α1b-adrenoceptor TMI-TMIV-eYFP”. The “sequential FRET signal (eCFP to dsRed2 FRET)” value in assay [5] is given as “increased”.
Turning to `Cc1nc2sccn2c(=O)c1CCN1CCC(=C(c2ccc(F)cc2)c2ccc(F)cc2)CC1` [ritanserin], the “cell surface delivery of mutant receptor” value in assay [3] (overnight treatment) is “only ketanserin caused significant cell surface delivery”.
